Measurements taken from patent US8999293B2, “Animal model of anxiety and depression” (University of Mississippi, priority 2005, dated 2015).
Read-outs that look alike come from different tables or passages of the source.

Assays:
[1] = system: isolated cockerels (Gallus gallus; W36); assay: Chick anxiety-depression model, drug probe studies, 120 min isolation (Example 3); conditions: for sleep onset latency (SOL) to index sedation / isolation-induced DVoc rate during the anxiety-like phase (first five min time block) / isolation-induced DVoc rate during the depression-like phase (30-120 min): IM fifteen minutes prior to testing; for sleep onset latency (SOL) to index sedation: vs vehicle/isolated chicks; for ED50: Gallus gallus; for isolation-induced DVoc rate during the anxiety-like phase (first five min time block) / isolation-induced DVoc rate during the depression-like phase (30-120 min): vs vehicle/isolated; for isolation-induced DVoc rate during the anxiety-like phase (first five min time block): attenuation = anxiolytic effect; for isolation-induced DVoc rate during the depression-like phase (30-120 min): increase = antidepressant effect
Procedure: Subjects and Housing Procedures. Cockerels (Gallus gallus; W36; Cal-Maine Foods, Inc.; Mendenhall, Miss.) were received one-day posthatch and housed in 34×57×40 cm stainless steel cages with 12-13 chicks per cage. Food (Purina Start and Grow, St. Louis, Mo.) and water were available ad libitum through one quart gravity-fed feeders (Murray MacMurray; Model 4BGFJ) and waterers (Murray MacMurray; Model 4YQW0). Room temperature was maintained at 29±1° C. and overhead illumination was maintained on a 12 hr light-dark cycle. Daily maintenance, which was conducted during the first three hr of the light cycle, involved refilling the waterer, refilling the feeder, and replacement of tray liners.
Apparatus. The testing apparatus consisted of a six-unit test apparatus containing Plexiglas viewing chambers (25×25×22 cm) placed in sound-attenuating enclosures. Each unit was illuminated and heated by a 25-W light bulb. Ventilation was provided by an eight centimeter diameter rotary fan (Commonwealth Model FP-108AX 51). Miniature video cameras (SuperCircuit Model PC60XP) mounted in the sound-attenuating enclosures at floor level and routed through a Multiplexor (SuperCircuit Model PC47MC) provided televised display of the chicks for behavioral observation. Distress vocalizations (DVocs) were recorded by microphones (Lafayette Instruments Model 3-675-001) mounted in the ceilings of the Plexiglas chambers and connected to digital sound-activating relays (Lafayette Instruments Model 63040A; settings: 75% sensitivity and 0.10 s delay) that triggered electromechanical counters (Lafayette Instruments Model 58004).
Drug Probes. All experiments were conducted between five- and seven days posthatch. The groups in each experiment formed a 1×5 factorial design with a hanging control condition (n=9-12). The two vehicle control groups constituted the social separation stress manipulation. This manipulation involved placing a chick in the Plexiglas test chamber either in isolation or with two social companions for a 120 min test observation period. All drug probes were tested in the isolation condition.
Vehicle or a drug was administered IM fifteen minutes prior to testing. Dependent measures that were collected during the test session were DVocs to index separation stress and sleep onset latency (SOL) to index sedation. DVocs were defined as the vocalizations that are picked up by the electromechanical counters. SOL was defined as the time in which a chick adopts a sleep-like posture with either its chest in full contact with the floor and its eyes closed or its legs in a wide posture, its head drooping, and its eyes closed. Following each six-chick test session, the animals were returned to their home cage. After all animals were tested, they were euthanized via CO^2 asphyxiation.
Statistical Analyses. In order to discretely analyze the drug effects in the anxiety-like state and the depression-like state, the raw DVoc data were converted to a rate per min score. The anxiety-like state DVoc rate consisted of the mean DVocs per min over the first five min of the test session. The depression-like state DVoc rate consisted of the mean DVocs per min from 30 min to 120 min. Following this conversion, the DVoc rates from the anxiety-like phase and depression-like phase were analyzed with a one-way ANOVA with Fisher's LSD post hoc analysis. Plasma IL-6 concentration data were analyzed using one-way ANOVA with Fisher's LSD post hoc analysis and independent sample t-tests.

domestic fowl chicks = conditions: cited from earlier work; for detection of anxiolytic activity on separation-induced distress vocalizations: Feltenstein et al. 2004; for detection in the chick separation stress paradigm: Warnick et al. 2006, panic disorder vs generalized anxiety disorder drugs
[2] = system: isolated cockerels (Gallus gallus, strain W-36); type: in vivo; conditions: isolated chicks vs vehicle-isolated, chlordiazepoxide 8 mg/kg
Source text: Subjects. Cockerels (Gallus gallus, strain W-36; Cal-Maine Foods, Mendenhall, Miss., USA) were obtained 1 day posthatch and housed in stainless steel cages (34×57×40 cm) at a population density of 12 chicks per cage. Food (Purina Start and Grow, St. Louis, Mo., USA) and water were available ad libitum through a 1-quart gravity-fed feeders and waterers.
Apparatus. […] The units were illuminated using 25-W light bulbs and ventilated by an 8-cmdiameter rotary fan. Miniature video cameras mounted at floor level in the corner of the enclosures allowed for animal observation. Microphones that mounted at the ceiling of the Plexiglas chamber were connected to digital sound-activating relays, which activated electromechanical counters. A white noise generator provided room masking noise.
Procedure. Tests were conducted at either Day 4, 5, or 6 posthatch. Groups formed a single factorial design with a hanging control that included two vehicle-control groups in which chicks were tested in either an isolated or social condition, and two drug groups under the isolation condition. The vehicle was 0.9% physiological saline and the drug probes were chlordiazepoxide (8 mg/kg) and imipramine (15 mg/kg). Sample sizes were n=12 per cell. […]
Statistics. Data were analyzed using one- and two-way repeated measures analysis of variance (ANOVA) and one-way simple effects ANOVA. […]

[3] = system: Black Australorp chicks (stress-vulnerable); assay: Chick anxiety-depression model, 90 min isolation, Black Australorp strain (Example 5); conditions: data not shown
[4] = read-out: ED50 AD Effect (40-60 min time block)
[5] = read-out: ED50 AD Effect (60-80 min time block)
[6] = read-out: ED50 AD Effect (80-100 min time block)
[7] = read-out: ED50 AD Effect (100-120 min time block)

CNC1=Nc2ccc(Cl)cc2C(c2ccccc2)=[N+]([O-])C1 [chlordiazepoxide]
sleep onset latency (SOL) to index sedation [1]: significant SOL reduction in the 10 mg/kg dose

O=C(CCCN1CCC(O)(c2ccc(Cl)cc2)CC1)c1ccc(F)cc1 [haloperidol]
detection of anxiolytic activity on separation-induced distress vocalizations (domestic fowl chicks): insensitive

NNCCc1ccccc1 [phenelzine]
detection in the chick separation stress paradigm (domestic fowl chicks): selectively detected

CN(C)CCCN1c2ccccc2CCc2ccccc21 [Imipramine, imipramine]
distress vocalizations (DVocs) at the first five minute time block ([2]; IP 15 minute before tests, imipramine 15 mg/kg): attenuated DVocs | DVoc rates at the 20 minute block and beyond ([2]; imipramine 15 mg/kg IP): enhanced DVoc rates | ED50 [1, 4]: 10 mg/kg | ED50 [1, 5]: 8.5 mg/kg | ED50 [1, 6]: 9.1 mg/kg | ED50 [1, 7]: 7.6 mg/kg | isolation-induced DVoc rate during the anxiety-like phase (first five min time block) [1]: significant attenuation of the separation-induced DVoc rate at the 10 mg/kg and 15 mg/kg doses | isolation-induced DVoc rate during the depression-like phase (30-120 min) [1]: significant exacerbation of the DVoc rate in the 1 mg/kg, 3 mg/kg and 15 mg/kg doses (p^s<0.005) and a marginally significant exacerbation in the 10 mg/kg dose condition | detection of anxiolytic activity on separation-induced distress vocalizations (domestic fowl chicks): successful detection | detection in the chick separation stress paradigm (domestic fowl chicks): selectively detected

CNCCCC12CCC(c3ccccc31)c1ccccc12 [Maprotiline, maprotiline]
ED50 ([1]; read-out: ED50 AD Effect (20-40 min time block)): 17.2 mg/kg | ED50 [1, 4]: 14 mg/kg | ED50 [1, 5]: 14.9 mg/kg | ED50 [1, 6]: 13.6 mg/kg | ED50 [1, 7]: 14.6 mg/kg | isolation-induced DVoc rate during the anxiety-like phase (first five min time block) [1]: significant attenuation of the separation-induced DVoc rate at the 20 mg/kg dose | isolation-induced DVoc rate during the depression-like phase (30-120 min) [1]: the three lowest doses (2.5 mg/kg, 5 mg/kg, and 10 mg/kg) exacerbated DVocs

Clc1cccc(Cl)c1N=C1NCCN1 [clonidine]
sleep onset latency (SOL) to index sedation [1]: significant SOL reduction in the 0.15 mg/kg and 0.20 mg/kg doses (p^s<0.05) and a marginally significant reduction in the 0.25 mg/kg dose | isolation-induced DVoc rate during the anxiety-like phase (first five min time block) [1]: significant attenuation of the separation-induced DVoc rate at all doses | isolation-induced DVoc rate during the depression-like phase (30-120 min) [1]: did not reveal a significant effect | detection of anxiolytic activity on separation-induced distress vocalizations (domestic fowl chicks): successful detection | detection in the chick separation stress paradigm (domestic fowl chicks): selectively detected

CN1[C@@H]2C[C@@H](OC(=O)[C@H](CO)c3ccccc3)C[C@H]1[C@@H]1O[C@@H]12 [scopolamine]
detection of anxiolytic activity on separation-induced distress vocalizations (domestic fowl chicks): insensitive

CN(C)CCCN1c2ccccc2Sc2ccc(Cl)cc21 [chlorpromazine]
detection of anxiolytic activity on separation-induced distress vocalizations (domestic fowl chicks): insensitive

CNCCC(Oc1ccc(C(F)(F)F)cc1)c1ccccc1 (centres unmarked) [Fluoxetine, fluoxetine]
ED50 [1, 4]: 16.5 mg/kg | ED50 [1, 5]: 13.3 mg/kg | ED50 [1, 6]: 14 mg/kg | ED50 [1, 7]: 14 mg/kg | isolation-induced DVoc rate during the anxiety-like phase (first five min time block) [1]: none of the doses of fluoxetine attenuated DVocs | isolation-induced DVoc rate during the depression-like phase (30-120 min) [1]: significant exacerbation of the DVoc rate in the 1 mg/kg, 10 mg/kg and 20 mg/kg doses

CNC1(c2ccccc2Cl)CCCCC1=O (centres unmarked) [Ketamine, ketamine]
antidepressant activity, follow-up study with ketamine at lower doses ([3]; Black Australorps): failed to see antidepressant activity in either strain | ataxia ([3]; highest dose tested, strain not specified): transient (5-10 min) ataxia

Cc1nnc2n1-c1ccc(Cl)cc1C(c1ccccc1)=NC2 [alprazolam]
detection in the chick separation stress paradigm (domestic fowl chicks): selectively detected

O=C1CC2(CCCC2)CC(=O)N1CCCCN1CCN(c2ncccn2)CC1 [buspirone]
detection in the chick separation stress paradigm (domestic fowl chicks): insensitive

CCCC(C)C1(CC)C(=O)NC(=O)NC1=O (centres unmarked) [pentobarbital]
detection of anxiolytic activity on separation-induced distress vocalizations (domestic fowl chicks): successful detection

CCCC(C)(COC(N)=O)COC(N)=O [meprobamate]
detection of anxiolytic activity on separation-induced distress vocalizations (domestic fowl chicks): successful detection

CC(N)Cc1ccccc1 (centres unmarked) [amphetamine]
detection of anxiolytic activity on separation-induced distress vocalizations (domestic fowl chicks): insensitive

O=c1n(CCCN2CCN(c3cccc(Cl)c3)CC2)nc2ccccn12 [trazodone]
detection in the chick separation stress paradigm (domestic fowl chicks): insensitive
